# Molecular target: T1, APOL1 G2 (Homo sapiens, UniProt O14791, DEL388-389)
# T1 construct: expressed in transfected cells; host or cells: HEK293 T-REx clonal line stably expressing GCaMP6f (HEK T-REx/GCaMP6f/APOL1 G2 K6.3), doxycycline induced
# T1 sequence (O14791 with tags, fused parts or gaps DEL388-389): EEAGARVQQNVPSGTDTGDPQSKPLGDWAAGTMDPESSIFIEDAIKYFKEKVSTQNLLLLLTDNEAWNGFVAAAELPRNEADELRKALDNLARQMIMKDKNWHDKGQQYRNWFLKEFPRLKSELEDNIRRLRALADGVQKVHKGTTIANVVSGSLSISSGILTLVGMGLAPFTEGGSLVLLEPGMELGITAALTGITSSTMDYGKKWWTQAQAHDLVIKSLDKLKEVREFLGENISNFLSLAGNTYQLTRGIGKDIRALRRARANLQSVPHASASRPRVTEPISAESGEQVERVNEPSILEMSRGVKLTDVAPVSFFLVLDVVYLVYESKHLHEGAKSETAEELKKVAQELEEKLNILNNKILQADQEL
# Experiment: APOL1-mediated calcium transport (calcium influx) assay, HEK T-REx/GCaMP6f/APOL1 G2 K6.3 cells, FLIPR TETRA
# Type: cell-based
# Settings: prevention of calcium influx; geometric mean of at least 2 assay runs; † = average of a technical replicate from a single assay run
# Method in brief: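 A HEK293 T-REx clone stably expressing GCaMP6f had APOL1 G2 induced with doxycycline (20 ng/mL solution added) for 6 h. Cells were then washed into Ca2+-free Tyrode's buffer (pH 7.4) and preincubated with compounds (duplicate 8-point) for 10 min at room temperature. Ca2+ injection to 5 mM final produced FLIPR GCaMP fluorescence, giving AC50 for influx inhibition (geometric mean, ≥2 runs).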
row,Structure (SMILES),AC50
1,"CC(COc1ccc2c(c1)CCC(=O)N2C)N1CCC2(CC1)C(=O)Nc1ccc(Cl)cc12 (single isomer, unassigned) [Compound 200]",1200 nM
2,"CC(COc1ccc2c(c1)CCC(=O)N2C)N1CCC2(CC1)C(=O)Nc1ccc(C#N)cc12 (single isomer, unassigned) [Compound 203, (S) or (R)-1′-{1-[(1-methyl-2-oxo-1,2,3,4-tetrahydroquinolin-6-yl)oxy]propan-2-yl}-2-oxo-1,2-dihydrospiro[indole-3,4′-piperidine]-5-carbonitrile]",1190 nM
3,"C[C@@H](COc1ccc(S(C)(=O)=O)c(C(F)F)c1)N1CCC2(CC1)C(=O)Nc1ccc(Cl)cc12 (single isomer, unassigned) [Compound 210]",1540 nM
4,"C[C@@H](COc1ccc2c(cnn2C)c1)N1CCC2(CC1)C(=O)Nc1ccc(Cl)cc12 (single isomer, unassigned) [Compound 211]",1290 nM
5,"C[C@@H](COc1ccc(S(C)(=O)=O)c(C(F)F)c1)N1CCC2(CC1)C(=O)Nc1ccc(C#N)cc12 (single isomer, unassigned) [Compound 212]",1360 nM
6,"CS(=O)(=O)c1ccc(OCCN2CCC3(CC2)C(=O)Nc2ccc(Cl)cc23)cc1C(F)CF (single isomer, unassigned) [Compound 218, 5-chloro-1′-(2-{3-[(1S or 1R)-1,2-difluoroethyl]-4-methanesulfonylphenoxy}ethyl)-1,2-dihydrospiro[indole-3,4′-piperidin]-2-one]",690 nM
7,"CS(=O)(=O)c1ccc(OCCN2CCC3(CC2)C(=O)Nc2ccc(Cl)cc23)cc1C(F)CF (single isomer, unassigned) [Compound 219, 5-chloro-1′-(2-{3-[(1R or 1S)-1,2-difluoroethyl]-4-methanesulfonylphenoxy}ethyl)-1,2-dihydrospiro[indole-3,4′-piperidin]-2-one]",835 nM
8,"CS(=O)(=O)c1ccc(OCCN2CCC3(CC2)C(=O)Nc2ccc(C#N)cc23)cc1C(F)CF (single isomer, unassigned) [Compound 221, 1′-(2-{3-[(1S or 1R)-1,2-difluoroethyl]-4-methanesulfonyl-phenoxy}ethyl)-2-oxo-1,2-dihydrospiro [indole-3,4′-piperidine]-5-carbonitrile]",598 nM
9,"CC(COc1ccc(C2(S(C)(=O)=O)COC2)cc1)N1CCC2(CC1)C(=O)Nc1ccc(C#N)cc12 (single isomer, unassigned) [Compound 263, (S) or (R)-1′-{1-[4-(3-methanesulfonyloxetan-3-yl)phenoxy]propan-2-yl}-2-oxo-1,2-dihydrospiro[indole-3,4′-piperidine]-5-carbonitrile]",2540 nM
10,"CN1C(=O)C2(CCN(CCOc3ccc(C4(S(C)(=O)=O)CC(O)C4)cc3)CC2)c2cc(C(F)F)ccc21 (single isomer, unassigned) [Compound 278, 5-(difluoromethyl)-1-methyl-1′-(2-{4-[(cis) or (trans)-3-hydroxy-1-methanesulfonylcyclobutyl]phenoxy}ethyl)-1,2-dihydrospiro[indole-3,4′-piperidin]-2-one]",769 nM
11,"CS(=O)(=O)C1(c2ccc(OCCN3CCC4(CC3)C(=O)Nc3ccc(C(F)F)cc34)cc2)CC(O)C1 (single isomer, unassigned) [Compound 281, 5-(difluoromethyl)-1′-(2-{4-[(cis) or (trans)-3-hydroxy-1-methanesulfonylcyclobutyl]phenoxy}ethyl)-1,2-dihydrospiro[indole-3,4′-piperidin]-2-one]",1310 nM
12,"CC(O)c1ncc(OCCN2CCC3(CC2)C(=O)Nc2ccc(Cl)cc23)cn1 (single isomer, unassigned) [Compound 285, 5-chloro-1′-[2-({2-[(1S) or (1R)-1-hydroxyethyl]pyrimidin-5-yl}oxy)ethyl]-1,2-dihydrospiro[indole-3,4′-piperidin]-2-one]",714 nM

# Source: patent publication US12344610B2, “APOL1 inhibitors and methods of use” (Maze Therapeutics, Inc., priority 2022, dated 2025)
